Results: US10344019B2 (priority 2010, dated 2019)

Key:
Assay in all cases: microbe, parasite or virus in culture
Type in all cases: cell-based
[1] = test system: HCV 1a RLuc cells (dicistronic genotype 1a H77 replicon, RLuc reporter); conditions: Hepatitis C virus, genotype 1a H77 replicon, RLuc reporter; read-out: 1a
Procedure: (§1) Evaluation of cell-based anti-HCV activity: Antiviral potency (EC50) was determined using a Renilla luciferase (RLuc)-based HCV replicon reporter assay. To perform the assay for genotype 1 and 2a JFH-1, HCV 1b RLuc cells (harboring a dicistronic genotype 1b Con1 replicon that encodes a RLuc reporter), or HCV 1a RLuc cells (harboring a dicistronic genotype 1a H77 replicon that encodes a RLuc reporter), or HCV 2a JFH-1 Rluc cells (harboring a dicistronic genotype 2a JFH-1 replicon that encodes a RLuc reporter) were dispensed into 384-well plates. To perform the assay for genotype 2a (with M31 present) or 2b, HCV 2a Rluc or 2b Rluc cells (both with M31 present) harboring a dicistronic NS5A chimeric genotype 2a JFH-1 replicon that encodes a RLuc reporter and either genotype 2a J6 strain NS5A gene or genotype 2b MD2b-1 NS5A gene (based on Los Alamos HCV database isolates, both with M31 present) respectively, were dispensed into 384-well plates. To perform the assay for genotype 3 and 4, HCV 3a RLuc or 4a Rluc cells harboring a dicistronic NS5A chimeric genotype 1b Con1 replicon that encodes a RLuc reporter and either a consensus genotype 3a NS5A gene or genotype 4a NS5A gene (based on Los Alamos HCV database isolates) respectively, were dispensed into 384-well plates. Compounds were re-suspended in DMSO at a concentration of 10 mM and serially diluted in DMSO either manually or using an automated pipeting instrument. Serially diluted compounds were mixed with cell culture media and added to the seeded cells. […] 72 hours later, cells were lysed and Renilla luciferase activity quantified as recommended by the manufacturer (Promega-Madison, Wis.). Non-linear regression was performed to calculate EC50 values.

[2] = test system: HCV 1b RLuc cells (dicistronic genotype 1b Con1 replicon, RLuc reporter); conditions: Hepatitis C virus, read-out: 1b (nM)
Procedure: as §1

[3] = test system: HCV 2a JFH-1 Rluc cells (dicistronic genotype 2a JFH-1 replicon, RLuc reporter); conditions: Hepatitis C virus, genotype 2a JFH-1 replicon, RLuc reporter; read-out: 2a JFH
Procedure: as §1

[4] = test system: HCV 3a RLuc cells (NS5A chimeric genotype 1b Con1 replicon with consensus genotype 3a NS5A gene); conditions: Hepatitis C virus, read-out: 3a, genotype 3a NS5A chimeric 1b Con1 replicon
Procedure: as §1

Row | Compound | EC50 [1] | EC50 [2] | EC50 [3] | EC50 [4]
1 | COC(=O)NC(C(=O)N1CCC[C@H]1c1ncc(-c2ccc(-c3ccc4cc(-c5cnc([C@@H]6CCCN6C(=O)[C@@H](NC(=O)OC)C(C)C)[nH]5)ccc4c3)cc2)[nH]1)c1ccccc1Cl (stereo partly drawn) [Example 104] | 0.001 to 0.999 nM | 0.007 nM | 0.001 to 0.999 nM | 0.001 to 0.99 nM
2 | COC(=O)N[C@H](C(=O)N1CCC[C@H]1c1ncc(-c2ccc(-c3ccc4cc(-c5cnc([C@@H]6CCCN6C(=O)[C@@H](NC(=O)OC)C(C)C)[nH]5)ccc4c3)cc2)[nH]1)c1ccccc1OC [Example 105] | 1 to 44 nM | 0.042 nM | 1 to 44 nM | 1 to 4.99 nM
3 | COC(=O)N[C@H](C(=O)N1CCC[C@H]1c1ncc(-c2ccc(-c3ccc4cc(-c5cnc([C@@H]6CCCN6C(=O)[C@@H](NC(=O)OC)C(C)C)[nH]5)ccc4c3)cc2)[nH]1)c1ccc(Cl)cc1 [Example 106] | 1 to 44 nM | 0.024 nM | 1 to 44 nM | 1 to 4.99 nM
4 | COC(=O)NC(C(=O)N1CCC[C@H]1c1ncc(-c2ccc(-c3ccc4cc(-c5cnc([C@@H]6CCCN6C(=O)[C@@H](NC(=O)OC)C(C)C)[nH]5)ccc4c3)cc2)[nH]1)c1ccc(Cl)cc1 (stereo partly drawn) [Example 107] | 1 to 44 nM | 0.024 nM | 1 to 44 nM | 1 to 4.99 nM
5 | COC(=O)N[C@H](C(=O)N1CCC[C@H]1c1ncc(-c2ccc(-c3ccc4cc(-c5cnc([C@@H]6CCCN6C(=O)[C@@H](NC(=O)OC)C(C)C)[nH]5)ccc4c3)cc2)[nH]1)c1ccc(OC)cc1 [Example 108] | 0.001 to 0.999 nM | 0.028 nM | 1 to 44 nM | > 5 nM
6 | COC(=O)N[C@H](C(=O)N1CCC[C@H]1c1ncc(-c2ccc3cc(-c4ccc(-c5cnc([C@@H]6CCCN6C(=O)[C@H](NC(=O)OC)c6ccc(OC)cc6)[nH]5)cc4)ccc3c2)[nH]1)C(C)C [Example 109] | 1 to 44 nM | 1.6 nM | > 44 nM | > 5 nM
7 | COC(=O)N[C@H](C(=O)N1CCC[C@H]1c1ncc(-c2ccc(-c3ccc4cc(-c5cnc([C@@H]6CCCN6C(=O)C(c6ccccc6)N(C)C)[nH]5)ccc4c3)cc2)[nH]1)C(C)C (stereo partly drawn) [Example 110] | 0.001 to 0.999 nM | 0.009 nM | 0.001 to 0.999 nM | 0.001 to 0.99 nM
8 | COC(=O)NC(C(=O)N1CCC[C@H]1c1ncc(-c2ccc3cc(-c4ccc(-c5cnc([C@@H]6CCCN6C(=O)[C@@H](NC(=O)OC)C(C)C)[nH]5)cc4)ccc3c2)[nH]1)c1ccc(OC(F)(F)F)cc1 (stereo partly drawn) [Example 111] | 1 to 44 nM | 0.16 nM | > 44 nM | > 5 nM
9 | COC(=O)N[C@H](C(=O)N1Cc2ccccc2C1c1nc(-c2ccc(-c3ccc4cc(-c5cnc([C@@H]6CCCN6C(=O)[C@@H](NC(=O)OC)C(C)C)[nH]5)ccc4c3)cc2)c[nH]1)C(C)C (stereo partly drawn) [Example 112] | 0.001 to 0.999 nM | 0.018 nM | 1 to 44 nM | > 5 nM
10 | COC(=O)N[C@H](C(=O)N1C[C@H](C)C[C@H]1c1ncc(-c2ccc(-c3ccc4cc(-c5cnc([C@@H]6C[C@H](C#N)CN6C(=O)[C@H](NC(=O)OC)c6ccccc6)[nH]5)ccc4c3)cc2)[nH]1)C(C)C [Example 113] | 0.001 to 0.999 nM | 0.014 nM | 0.001 to 0.999 nM | 0.001 to 0.99 nM
11 | COC(=O)N[C@H](C(=O)N1CCC[C@H]1c1ncc(-c2ccc3cc(C#Cc4cnc([C@@H]5CCCN5C(=O)[C@H](NC(=O)OC)c5ccccc5)[nH]4)ccc3c2)[nH]1)C(C)C [Example 115] | 0.001 to 0.999 nM | 0.019 nM | 0.001 to 0.999 nM | 0.001 to 0.99 nM
12 | COC(=O)N[C@H](C(=O)N1CCC[C@H]1c1ncc(-c2ccc3cc(-c4ccc(-c5cnc([C@@H]6SCCN6C(=O)[C@H](NC(=O)OC)c6ccccc6)[nH]5)cc4)ccc3c2)[nH]1)C(C)C [Example 117] | 0.001 to 0.999 nM | 0.007 nM | 0.001 to 0.999 nM | 0.001 to 0.99 nM
